Measurements: PubChem BioAssay (NCI)
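Growth conditions: 96-well plates. Treatment: test compound, 48 hours, 5 concentrations. Analysis: linear interpolation between bracketing concentrations; unreached endpoints set to highest concentration. The concentration for full growth arrest is given as TGI.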

Experiments:
Assay in all cases: NCI-60 cell line screen, 48 h
BT-549 breast = system: BT-549 breast
EKVX NSCLC = system: EKVX NSCLC
HOP-92 NSCLC = system: HOP-92 NSCLC
OVCAR-4 ovarian = system: OVCAR-4 ovarian
SK-MEL-28 melanoma = system: SK-MEL-28 melanoma
SNB-19 CNS = system: SNB-19 CNS
SNB-75 CNS = system: SNB-75 CNS
UO-31 renal = system: UO-31 renal
IGROV1 ovarian = system: IGROV1 ovarian
NCI-H226 lung = system: NCI-H226 lung

Row | SMILES | TGI (BT-549 breast) | TGI (EKVX NSCLC) | TGI (HOP-92 NSCLC) | TGI (OVCAR-4 ovarian) | TGI (SK-MEL-28 melanoma) | TGI (SNB-19 CNS) | TGI (SNB-75 CNS) | TGI (UO-31 renal) | TGI (IGROV1 ovarian) | TGI (NCI-H226 lung)
1 | O=[N+]([O-])c1ccc(Cc2nc3cc4ccccc4cc3[nH]2)cc1C(F)(F)F | 43 µM | > 100 µM | 41.1 µM | 46.8 µM | > 100 µM | 39 µM | 37.3 µM | 40.4 µM | – | –
2 | COC1=CC(=O)c2c(c(COC(C)=O)cn2C)C1=O | 0.0911 µM | 0.727 µM | 0.822 µM | 1.04 µM | 0.516 µM | 8.18 µM | 0.88 µM | 0.551 µM | 0.443 µM | 0.424 µM
3 | CC(=O)Nc1c2sscc-2n(C)c1=O | 2.76 µM | 3.68 µM | 3.7 µM | 2.96 µM | 2.69 µM | 3.45 µM | 3.05 µM | 3.58 µM | 4.65 µM | 3.4 µM
4 | CN(CC(=O)O)CC(=O)O | > 100 µM | > 100 µM | > 100 µM | > 100 µM | > 100 µM | > 100 µM | > 100 µM | > 100 µM | > 100 µM | > 100 µM
5 | O=C(CC(Cc1ccccc1)c1ccc(Oc2ccccc2)cc1)Nc1cccc(Cl)c1 (stereo not given) | 75.9 µM | > 100 µM | 5.51 µM | > 100 µM | > 100 µM | > 100 µM | 56.6 µM | > 100 µM | 16.3 µM | 73.2 µM
6 | N#CC(NNC(=O)c1c(Cl)c(Cl)c(Cl)c(Cl)c1-c1nc2ccc(C(=O)c3ccccc3)cc2[nH]1)c1ccccc1 (stereo not given) | > 100 µM | > 100 µM | > 100 µM | > 100 µM | > 100 µM | 99.2 µM | 27.8 µM | > 100 µM | > 100 µM | 28.3 µM
7 | COc1ccc(N2C(=O)C(=O)N(C)C2=O)c2ccccc12 | – | > 10 µM | – | > 10 µM | > 10 µM | > 10 µM | > 10 µM | > 10 µM | > 10 µM | > 10 µM
8 | C1=Nc2ccccc2Cn2nncc21 | – | > 100 µM | > 100 µM | > 100 µM | > 100 µM | > 100 µM | – | > 100 µM | > 100 µM | > 100 µM
9 | O=c1ccc2c(Cl)cccc2o1 | > 100 µM | > 100 µM | > 100 µM | > 100 µM | > 100 µM | > 100 µM | > 100 µM | > 100 µM | > 100 µM | > 100 µM
10 | O=S(=O)(Nc1nccs1)c1ccc([As](=O)(O)O)cc1 | > 100 µM | > 100 µM | > 100 µM | > 100 µM | > 100 µM | > 100 µM | > 100 µM | > 100 µM | > 100 µM | > 100 µM
11 | COc1cc(/C=N/N=C(\N)NO)ccc1O | – | > 100 µM | > 100 µM | > 100 µM | > 100 µM | > 100 µM | – | > 100 µM | > 100 µM | 85.9 µM
12 | O=[N+]([O-])c1ccc(NNN=Nc2ccc(-c3nc4ccccc4[nH]3)cc2)c([N+](=O)[O-])c1 | > 100 µM | 96.4 µM | > 100 µM | > 100 µM | > 100 µM | > 100 µM | > 100 µM | > 100 µM | > 100 µM | > 100 µM
13 | CCN(CC)CCCC(C)Nc1c2ccc(Cl)cc2nc2cc(Cl)ccc12 (stereo not given) | – | 29.8 µM | 9.64 µM | 9.68 µM | 15.8 µM | 40.8 µM | 22.7 µM | 11.5 µM | 19.5 µM | 9.76 µM
14 | OCC(O)C(O)C(O)C(O)CNCCO/N=C1/C(c2c(O)[nH]c3ccccc23)=Nc2ccccc21 (stereo not given) | 41.7 µM | > 50 µM | 26.9 µM | > 50 µM | 20.7 µM | 35.9 µM | 24.5 µM | > 50 µM | > 50 µM | > 50 µM
15 | CC(C(=O)NCCNC(=O)CCCC(=O)N(C)O)C(=O)NCCNC(=O)CCCC(=O)N(C)O | – | > 100 µM | > 100 µM | > 100 µM | > 100 µM | > 100 µM | > 100 µM | > 100 µM | > 100 µM | > 100 µM
16 | CSC1=C(SC)C(=O)c2cn(C)c(=O)cc2C1=O | 3.71 µM | 33.6 µM | 2.12 µM | 3.74 µM | 6.69 µM | 31.1 µM | 22.5 µM | 3.13 µM | 25.4 µM | 40.4 µM
